Reference: ChEMBL document CHEMBL1201862, “PubChem BioAssay data set” (2004)
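96-well plates; 48 h exposure; 5 concentrations. Endpoints by linear interpolation between flanking doses. Not reached: highest tested concentration assigned. GI50: concentration for 50% inhibition of growth.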 The source made the active and inactive calls. Rule as the data show it: active = GI50 up to about 1.1 µM and inactive = higher.

Legend:
Test in all cases: DTP human tumour cell line panel, 48 h
CCRF-CEM = test system: CCRF-CEM
SF-539 = test system: SF-539
COLO 205 = test system: COLO 205
HCC 2998 = test system: HCC 2998
RXF 393 = test system: RXF 393
SR = test system: SR
SK-MEL-5 = test system: SK-MEL-5
Malme-3M = test system: Malme-3M
LOX IMVI = test system: LOX IMVI
OVCAR-3 = test system: OVCAR-3
UO-31 = test system: UO-31
MDA-MB-231 = test system: MDA-MB-231
HT-29 = test system: HT-29
PC-3 = test system: PC-3
A549 = test system: A549
NCI-H460 = test system: NCI-H460
ACHN = test system: ACHN
MCF7 = test system: MCF7
SW-620 = test system: SW-620
U-251 = test system: U-251

Structure (SMILES)	GI50 (CCRF-CEM)	GI50 (SF-539)	GI50 (COLO 205)	GI50 (HCC 2998)	GI50 (RXF 393)	GI50 (SR)	GI50 (SK-MEL-5)	GI50 (Malme-3M)	GI50 (LOX IMVI)	GI50 (OVCAR-3)	GI50 (UO-31)	GI50 (MDA-MB-231)	GI50 (HT-29)	GI50 (PC-3)	GI50 (A549)	GI50 (NCI-H460)	GI50 (ACHN)	GI50 (MCF7)	GI50 (SW-620)	GI50 (U-251)
C/C(=N\NC(N)=O)C(CN(C)C)C(c1ccccc1)c1c(O)c2ccccc2oc1=O (stereo not given)	90.8 µM (inactive)	> 100 µM (inactive)	36.4 µM (inactive)	> 100 µM (inactive)	88.7 µM (inactive)	> 100 µM (inactive)	> 100 µM (inactive)	42.4 µM (inactive)	> 100 µM (inactive)	> 100 µM (inactive)	> 100 µM (inactive)	> 100 µM (inactive)	> 100 µM (inactive)	> 100 µM (inactive)	> 100 µM (inactive)	> 100 µM (inactive)	> 100 µM (inactive)	> 100 µM (inactive)	> 100 µM (inactive)	> 100 µM (inactive)
COC(=O)C1=C(OC(=O)c2ccccc2)C(C(=O)OC)[C@]2(O)[C@@H](C(=O)OC)[C@H]1C[C@@H](c1ccccc1)[C@@H]2C(=O)OC (stereo not given in full)	0.716 µM (active)	2.2 µM (inactive)	10.2 µM (inactive)	7.21 µM (inactive)	3.14 µM (inactive)	8.87 µM (inactive)	4.85 µM (inactive)	13.5 µM (inactive)	9.31 µM (inactive)	10.8 µM (inactive)	2.52 µM (inactive)	15.7 µM (inactive)	15.7 µM (inactive)	4.82 µM (inactive)	9.18 µM (inactive)	9.68 µM (inactive)	10.9 µM (inactive)	3.01 µM (inactive)	5.12 µM (inactive)	5.24 µM (inactive)
CCOC(=O)C(NC(=O)c1ccccc1)(Nc1ccc(S(=O)(=O)Nc2cc(C)on2)cc1)C(F)(F)F (stereo not given)	> 100 µM (inactive)	> 100 µM (inactive)	> 100 µM (inactive)	> 100 µM (inactive)	> 100 µM (inactive)	> 100 µM (inactive)	> 100 µM (inactive)	> 100 µM (inactive)	> 100 µM (inactive)	> 100 µM (inactive)	> 100 µM (inactive)	> 100 µM (inactive)	> 100 µM (inactive)	> 100 µM (inactive)	> 100 µM (inactive)	> 100 µM (inactive)	> 100 µM (inactive)	> 100 µM (inactive)	> 100 µM (inactive)	> 100 µM (inactive)
Oc1cccc2c(Cl)ccnc12	0.266 µM (active)	2.11 µM (inactive)	14.3 µM (inactive)	4.43 µM (inactive)	0.83 µM (active)	0.243 µM (active)	1.22 µM (inactive)	6.97 µM (inactive)	0.384 µM (active)	0.287 µM (active)	1.37 µM (inactive)	1.13 µM (inactive)	9.51 µM (inactive)	1.67 µM (inactive)	3.44 µM (inactive)	3.08 µM (inactive)	1.99 µM (inactive)	1.11 µM (active)	0.778 µM (active)	1.45 µM (inactive)
Oc1cc(-c2cccc3ccccc23)nc2ncccc12	0.0245 µM (active)	0.0197 µM (active)	0.0154 µM (active)	0.0745 µM (active)	0.015 µM (active)	0.00565 µM (active)	0.0021 µM (active)	0.00225 µM (active)	0.033 µM (active)	0.00457 µM (active)	0.0402 µM (active)	0.172 µM (active)	0.0173 µM (active)	0.0182 µM (active)	0.0481 µM (active)	0.0443 µM (active)	0.0325 µM (active)	0.00693 µM (active)	0.0344 µM (active)	0.0211 µM (active)
CNC(=O)/C(=C/c1ccc(OC)cc1)c1cc(OC)c(OC)c(OC)c1	2.32 µM (inactive)	1.34 µM (inactive)	1.16 µM (inactive)	2.45 µM (inactive)	1.99 µM (inactive)	0.513 µM (active)	0.593 µM (active)	0.887 µM (active)	4.88 µM (inactive)	0.641 µM (active)	6.44 µM (inactive)	6.14 µM (inactive)	0.593 µM (active)	1.03 µM (active)	1.69 µM (inactive)	1.47 µM (inactive)	8.65 µM (inactive)	0.769 µM (active)	0.802 µM (active)	2.81 µM (inactive)
c1c2c(cc3c1OCO3)-c1cc3ccc4c(c3c[n+]1CC2)OCO4 [COPTISINE CHLORIDE]	0.764 µM (active)	0.887 µM (active)	3.56 µM (inactive)	3.85 µM (inactive)	1.99 µM (inactive)	0.486 µM (active)	0.587 µM (active)	0.259 µM (active)	1.01 µM (active)	0.798 µM (active)	0.857 µM (active)	1.13 µM (inactive)	5.65 µM (inactive)	0.944 µM (active)	4.44 µM (inactive)	0.53 µM (active)	2.5 µM (inactive)	1.24 µM (inactive)	0.462 µM (active)	0.935 µM (active)
O=C1c2ccccc2S(=O)(=O)c2cc(-c3nn[nH]n3)ccc21 [DOXANTRAZOLE]	> 100 µM (inactive)	> 100 µM (inactive)	> 100 µM (inactive)	> 100 µM (inactive)	> 100 µM (inactive)	> 100 µM (inactive)	> 100 µM (inactive)	> 100 µM (inactive)	> 100 µM (inactive)	> 100 µM (inactive)	> 100 µM (inactive)	> 100 µM (inactive)	> 100 µM (inactive)	> 100 µM (inactive)	> 100 µM (inactive)	> 100 µM (inactive)	> 100 µM (inactive)	> 100 µM (inactive)	> 100 µM (inactive)	> 100 µM (inactive)
